These are literature values, as cited in patent US20070225210A1, “Therapeutic vaccine compositions for the treatment of type 1 diabetes” (priority 2003, published 2007).

The subject of one data set is insulin. Conditions: aqueous formulations, administered subcutaneously, NOD mice.
Data set [1] deals with individuals with, or at risk of, type 1 diabetes. Conditions: repeat administration of low doses.

In the case of “SHLVEALYLVCGERG (Insulin B chain analog) [insulin B chain 9-23, 9-23 fragment of the native insulin B chain]”, the “prevention of the onset of diabetes” value in the data set on NOD mice (aqueous formulations, administered subcutaneously) is given as “can prevent the onset of diabetes”. For the same substance, in the data set on NOD mice (immunization), the “protection from the onset of diabetes” value is recorded as “protect from the onset of diabetes”. For the same substance, the protection against diabetes result in the data set with NOD mice (immunization, administered intranasally) is given as “partial protection against diabetes”. Moreover, the “immune response to insulin” value in the data set with insulin is listed as “can induce an immune response to insulin”.

As for “insulin B chain: native human insulin B chain peptide with cysteinyl residues at positions 7 and 19”, the “protection from the onset of diabetes” value in the data set on NOD mice (immunization) is reported as “protect from the onset of diabetes”. In data set [1], the “symptoms of diabetes and insulin-dependency of the patient” value was “can prevent or reduce the symptoms of diabetes and the insulin-dependency of the patient”.
